Values after ≈ are worked out from the molar mass of the structure shown. Values joined by “and” are separate entries in the source; they are usually repeats but may differ in a detail not shown here. Identical values can stand only once. “Also recorded” adds a separate entry of the source.
Experiments:
Y. enterocolitica [1] = experiment: Biofilm amounts, CV assay, 24-well polystyrene plate; type: cell-based, Yersinia enterocolitica
Description: Data were expressed as OD600.

S. marcescens [2] = experiment: Biofilm amounts, ATP assay, 24-well polystyrene plate; type: cell-based; settings: Serratia marcescens, 30° C.
isolated bovine corneas = settings: cited from earlier work
Y. enterocolitica [3] = experiment: Biofilm in silicone tubing, EAA flush, CV assay; settings: 10 mg/ml EAA
E. coli = settings: cited from earlier work
P. aeruginosa [4] = experiment: Biofilm in silicone tubing, EAA flush, CV assay; settings: 100 mg/ml EAA
B. subtilis = settings: cited from earlier work
pseudomonads = experiment: Ground beef at 10° C., counts on PSA plates; type: cell-based; settings: for Different from 0% (concentrations grouping differently from untreated control, Fisher's LSD and t-test): PSA, Pseudomonas
Procedure: (§1) Ground beef was obtained from the NDSU Meat Lab (ag.ndsu.edu/ansc/facilities/shepperd-arena). Precautionary steps that the slaughter facility undertakes to prevent microbial contamination of muscle meat include rinses of the hot carcass with hot water and 2.5% lactic acid (Birko Corp., Henderson, Colo.). Prior to cutting the meat, cattle halves are incubated for two weeks at a temperature between 0 and 2.2° C. For this Example, meat from two animals was ground within the NDSU Meat Lab and consecutively transferred on ice to the research lab where this Experiment was conducted. Approximately 4 pound of ground meat was obtained from two independent slaughter events (FIG. 6). These two original meat samples are referred to as biological replicates throughout this study. Each biological replicate was weighed into five aliquots of 200 g that were supplemented with 0 g, 0.1 g, 0.5 g, 1 g, or 5 g of liquid EAA (Alfa Aesar, Ward Hill Mass.). […]
(§2) Meat samples were removed from the freezer and incubated at 10° C. for five days; bacterial counts were determined on days 1, 3, and 5. […]
(§3) The content of each bag was transferred into a stomacher bag and Maximum Recovery Diluent (MRD) was added to a total of 50 ml. […] The total bacterial count of each homogenate was determined by plating serial dilutions on Plate Count Agar (PCA). Pseudomonads were determined with Pseudomonas Selective Agar (PSA), lactobacilli with All Purpose Tween agar (APT), B. thermospacta with Streptomycin sulphate, Thallous Acetate and Actidione agar (STAA), and Enterobacteriaceae with Violet Red Bile Glucose agar (VRBG). […]
(§4) Each experiment was performed in a total of 8 replicates (2 biological replicates×2 technical replicates×2 plate replicates). […] Data were analyzed for each EAA concentration and selective media and expressed as CFU/g of meat or log10 CFU/g of meat. […] Average and standard errors were calculated across the two biological and two technical replicates. […]

lactobacilli = experiment: Ground beef at 10° C., counts on APT plates; type: cell-based; settings: for Different from 0% (concentrations grouping differently from untreated control, Fisher's LSD and t-test): LPT, Lactobacilli
Procedure: as §1, §2, §3, §4

S. aureus [5] = experiment: Biofilm in silicone tubing, EAA flush, ATP assay; type: cell-based, Staphylococcus aureus
Description: An AV Fistula Needle 17 Ga.

Y. enterocolitica [6] = experiment: Planktonic growth (maximal velocity of OD600) in TSB; type: cell-based, Yersinia enterocolitica; settings: for IC50: Yersinia enterocolitica, Y. enterocolitica
Procedure: The IC50 values were calculated using […] software (Hitachi Solutions, San Bruno, Calif.).

rats = rats fed up to 300 mg/kg body weight of EAA every day for 28 days; cited from earlier work
P. aeruginosa [7] = experiment: Biofilm in silicone tubing, EAA flush, ATP assay
Y. enterocolitica [8] = experiment: Viable bacteria (cell counts) within the biofilm; type: cell-based, Yersinia enterocolitica
C. sakazakii = experiment: Biofilm amounts, ATP assay, 24-well polystyrene plate; type: cell-based; settings: Cronobacter sakazakii, 37° C.
S. aureus [9] = experiment: Viable cell counts in the liquid collected from the tubing before each treatment; type: cell-based, Staphylococcus aureus; settings: before the 2nd treatment, 100 mg/ml EAA as first treatment
B. thermospacta = experiment: Ground beef at 10° C., counts on STAA plates; type: cell-based, Brocothrix thermospacta; settings: for Different from 0% (concentrations grouping differently from untreated control, Fisher's LSD and t-test): STAA, B. thermospacta
Procedure: as §1, §2, §3, §4

S. marcescens [10] = experiment: Biofilm in silicone tubing, EAA flush, ATP assay; settings: 5 mg/ml EAA
albino rabbits = settings: 0.5 ml EAA, semi-occlusive cover, intact skin, 4 hours of exposure; cited from earlier work

## CCOC(=O)CC(C)=O [EAA, ethyl acetoacetate]
Y. enterocolitica [1]; 37° C., 10 mg/ml EAA
  biofilm amounts quantified by the CV assay: abolished
Y. enterocolitica [1]; Yersinia enterocolitica, Y. enterocolitica, 25° C.
  IC50: 1000 µg/mL (≈ 7.68 mM)
S. marcescens [2]
  IC50: 5500 µg/mL (≈ 42.3 mM)
Isolated bovine corneas
  eye irritation: moderate eye irritation that was fully reversible after seven days
Y. enterocolitica [3]
  reduction in biofilm biomass (CV), words: No reduction
E. coli
  mutagenicity: a mutagenic effect could be detected
P. aeruginosa [4]; first experiment
  reduction in biofilm biomass (CV), words: no reduction
P. aeruginosa [4]; repeated experiment, untreated 0.78
  biofilm biomass from the CV assay after EAA: 0.24 OD600
B. subtilis
  mutagenicity: No mutagenicity was detected
pseudomonads; 0.5% w/w EAA, 3 days at 10° C.
  log reduction, pseudomonads: 2.6
pseudomonads; 0.5% EAA
  Different from 0% (concentrations grouping differently from untreated control, Fisher's LSD and t-test): 0.5%
pseudomonads; 2.5% EAA
  Different from 0% (concentrations grouping differently from untreated control, Fisher's LSD and t-test): 2.5%
lactobacilli; 0.5% w/w EAA, 3 days at 10° C.
  log reduction, lactobacilli: 1.8
lactobacilli; 0.5% EAA
  Different from 0% (concentrations grouping differently from untreated control, Fisher's LSD and t-test): 0.5%
lactobacilli; 2.5% EAA
  Different from 0% (concentrations grouping differently from untreated control, Fisher's LSD and t-test): 2.5%
S. aureus [5]; 100 mg/ml EAA
  percent reduction of ATP: 75% and 76%
S. aureus [5]; 100 mg/ml of EAA, repeated experiment
  ATP assay of the biofilm at the end of the two week incubation: just about abolished the biofilm
Y. enterocolitica [6]; 25° C., 10 mg/ml EAA
  log reduction of planktonic growth: 1.7 log
  reduction of planktonic growth, fold equivalent: 50 fold
Y. enterocolitica [6]; 37° C., 5 mg/ml EAA
  log reduction of planktonic growth: 1.78
  reduction of planktonic growth, fold equivalent: 61 fold
Y. enterocolitica [6]; 25° C.
  IC50: 3200 µg/mL (≈ 24.6 mM)
Y. enterocolitica [6]; 37° C.
  IC50: 2480 µg/mL (≈ 19.1 mM)
rats
  general health, hematology, serum, urine, renal function: did not result in any general health defects or changes in hematology, serum, urine, or renal function
P. aeruginosa [7]; 100 mg/ml EAA, first experiment
  ATP content of P. aeruginosa biofilm: not affected; also recorded: not reduced
P. aeruginosa [7]; P. aeruginosa, 10 mg/ml of EAA
  reduction of ATP: 76%
P. aeruginosa [7]; P. aeruginosa, 100 mg/ml of EAA, repeated experiment
  ATP assay of the biofilm at the end of the two week incubation: just about abolished the biofilm
Y. enterocolitica [8]; 25° C., 7.5 mg/ml EAA
  reduction of bacterial cell counts in the biofilm: 2.06 logs
Y. enterocolitica [8]; 25° C., 10 mg/ml EAA
  reduction of bacterial cell counts in the biofilm: 3.07 logs
Y. enterocolitica [8]; 37° C., 2.5 mg/ml EAA
  bacterial cell counts in the biofilm: did not show a reduction
Y. enterocolitica [8]; 37° C., 7.5 mg/ml EAA
  log reduction of bacterial cell counts in the biofilm: 2.06 logs
Y. enterocolitica [8]; 37° C., 10 mg/ml of EAA
  log reduction in live bacteria within the biofilm: 0.92
  reduction in live bacteria within the biofilm, fold equivalent: 8.3 fold
Y. enterocolitica [8]; Yersinia enterocolitica, Y. enterocolitica, 25° C., live bacteria in the biofilm, read-out: IC50, Live cells
  IC50: 3000 µg/mL (≈ 23.1 mM)
C. sakazakii
  IC50: 310 µg/mL (≈ 2.38 mM)
S. aureus [9]
  difference in viable cells in the liquid, EAA vs media flush: 2 log
B. thermospacta; 0.5% w/w EAA, 3 days at 10° C.
  log reduction, Brocothrix thermospecta: 2.1
B. thermospacta; 0.5% EAA
  Different from 0% (concentrations grouping differently from untreated control, Fisher's LSD and t-test): 0.5%
B. thermospacta; 2.5% EAA
  Different from 0% (concentrations grouping differently from untreated control, Fisher's LSD and t-test): 2.5%
S. marcescens [10]
  reduction in ATP content of the biofilm: ~100%
Albino rabbits
  skin irritation: no indications of irritation were detected

Reference: patent US11452292B2, “Biofilm inhibitor and method of inhibiting biofilm” (NDSU Research Foundation, priority 2017, dated 2022)
